Results taken from PubChem BioAssay (NCI).
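Five concentrations, 48 hours, 96-well plates. Here, GI50 denotes the concentration required for 50% inhibition of growth. TGI is the concentration that stops growth completely.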

Tests used:
Experiment in all cases: DTP human tumour cell line panel, 48 h
786-0 renal = tested on: 786-0 renal
A498 renal = tested on: A498 renal
ACHN renal = tested on: ACHN renal
BT-549 breast = tested on: BT-549 breast
CAKI-1 renal = tested on: CAKI-1 renal
CCRF-CEM leukemia = tested on: CCRF-CEM leukemia
COLO 205 colon = tested on: COLO 205 colon
DU-145 prostate = tested on: DU-145 prostate
EKVX NSCLC = tested on: EKVX NSCLC
HCC-2998 colon = tested on: HCC-2998 colon
HCT-15 colon = tested on: HCT-15 colon
HL-60(TB) leukemia = tested on: HL-60(TB) leukemia
HOP-62 NSCLC = tested on: HOP-62 NSCLC
HOP-92 NSCLC = tested on: HOP-92 NSCLC
HS 578T breast = tested on: HS 578T breast
IGROV1 ovarian = tested on: IGROV1 ovarian
K-562 leukemia = tested on: K-562 leukemia
KM12 colon = tested on: KM12 colon
LOX IMVI melanoma = tested on: LOX IMVI melanoma
M14 melanoma = tested on: M14 melanoma
MALME-3M melanoma = tested on: MALME-3M melanoma
MCF7 breast = tested on: MCF7 breast
MDA-MB-231 breast = tested on: MDA-MB-231 breast
MDA-MB-435 = tested on: MDA-MB-435
MDA-MB-468 breast = tested on: MDA-MB-468 breast
MOLT-4 leukemia = tested on: MOLT-4 leukemia
NCI-H226 lung = tested on: NCI-H226 lung
NCI-H460 lung = tested on: NCI-H460 lung
NCI/ADR-RES ovarian = tested on: NCI/ADR-RES ovarian
OVCAR-3 ovarian = tested on: OVCAR-3 ovarian
OVCAR-4 ovarian = tested on: OVCAR-4 ovarian
OVCAR-5 ovarian = tested on: OVCAR-5 ovarian
OVCAR-8 ovarian = tested on: OVCAR-8 ovarian
PC-3 prostate = tested on: PC-3 prostate
RPMI-8226 leukemia = tested on: RPMI-8226 leukemia
RXF 393 renal = tested on: RXF 393 renal
SF-268 CNS = tested on: SF-268 CNS
SF-295 CNS = tested on: SF-295 CNS
SF-539 CNS = tested on: SF-539 CNS
SK-MEL-2 melanoma = tested on: SK-MEL-2 melanoma
SK-MEL-28 melanoma = tested on: SK-MEL-28 melanoma
SK-MEL-5 melanoma = tested on: SK-MEL-5 melanoma
SK-OV-3 ovarian = tested on: SK-OV-3 ovarian
SN12C renal = tested on: SN12C renal
SNB-19 CNS = tested on: SNB-19 CNS
SNB-75 CNS = tested on: SNB-75 CNS
SR leukemia = tested on: SR leukemia
SW-620 colon = tested on: SW-620 colon
T-47D breast = tested on: T-47D breast
TK-10 renal = tested on: TK-10 renal
U251 CNS = tested on: U251 CNS
UACC-257 melanoma = tested on: UACC-257 melanoma
UACC-62 melanoma = tested on: UACC-62 melanoma
UO-31 renal = tested on: UO-31 renal

Structure (SMILES): COc1ccc2[nH]c(O)c(N=NC(=O)COc3ccc(NC(=O)Nc4ccc(Cl)c(Cl)c4)cc3)c2c1
- GI50 (786-0 renal): 1.07 µM
- TGI (786-0 renal): 2.75 µM
- GI50 (A498 renal): 1.84 µM
- TGI (A498 renal): 5.4 µM
- GI50 (ACHN renal): 2.18 µM
- TGI (ACHN renal): 13.2 µM
- GI50 (BT-549 breast): 2.01 µM
- TGI (BT-549 breast): 4.47 µM
- GI50 (CAKI-1 renal): 2.39 µM
- TGI (CAKI-1 renal): 11 µM
- GI50 (CCRF-CEM leukemia): 0.822 µM
- TGI (CCRF-CEM leukemia): 19.1 µM
- GI50 (COLO 205 colon): 1.12 µM
- TGI (COLO 205 colon): 4.21 µM
- GI50 (DU-145 prostate): 0.493 µM
- TGI (DU-145 prostate): 1.91 µM
- GI50 (EKVX NSCLC): 3.89 µM
- TGI (EKVX NSCLC): 25.9 µM
- GI50 (HCC-2998 colon): 2.97 µM
- TGI (HCC-2998 colon): 15.6 µM
- GI50 (HCT-15 colon): 31.6 µM
- TGI (HCT-15 colon): > 100 µM
- GI50 (HL-60(TB) leukemia): 6.71 µM
- TGI (HL-60(TB) leukemia): 25.1 µM
- GI50 (HOP-62 NSCLC): 2.88 µM
- TGI (HOP-62 NSCLC): 14.1 µM
- GI50 (HOP-92 NSCLC): 0.615 µM
- TGI (HOP-92 NSCLC): 2.63 µM
- GI50 (HS 578T breast): 1.87 µM
- TGI (HS 578T breast): 5.52 µM
- GI50 (IGROV1 ovarian): 1.91 µM
- TGI (IGROV1 ovarian): 6.35 µM
- GI50 (K-562 leukemia): 0.575 µM
- TGI (K-562 leukemia): 19.7 µM
- GI50 (KM12 colon): 1.29 µM
- TGI (KM12 colon): 7.64 µM
- GI50 (LOX IMVI melanoma): 0.309 µM
- TGI (LOX IMVI melanoma): 1.03 µM
- GI50 (M14 melanoma): 0.992 µM
- TGI (M14 melanoma): 4.57 µM
- GI50 (MALME-3M melanoma): 0.452 µM
- TGI (MALME-3M melanoma): 1.68 µM
- GI50 (MCF7 breast): 0.488 µM
- TGI (MCF7 breast): 6.05 µM
- GI50 (MDA-MB-231 breast): 1.46 µM
- TGI (MDA-MB-231 breast): 3.55 µM
- GI50 (MDA-MB-435): 0.605 µM
- TGI (MDA-MB-435): 2.36 µM
- GI50 (MDA-MB-468 breast): 1.17 µM
- TGI (MDA-MB-468 breast): 3.01 µM
- GI50 (MOLT-4 leukemia): 1.61 µM
- TGI (MOLT-4 leukemia): 17.9 µM
- GI50 (NCI-H226 lung): 1.07 µM
- TGI (NCI-H226 lung): 3.45 µM
- GI50 (NCI-H460 lung): 0.437 µM
- TGI (NCI-H460 lung): 1.49 µM
- GI50 (NCI/ADR-RES ovarian): 25.4 µM
- TGI (NCI/ADR-RES ovarian): > 100 µM
- GI50 (OVCAR-3 ovarian): 0.696 µM
- TGI (OVCAR-3 ovarian): 2.28 µM
- GI50 (OVCAR-4 ovarian): 0.691 µM
- TGI (OVCAR-4 ovarian): 2.74 µM
- GI50 (OVCAR-5 ovarian): 1.53 µM
- TGI (OVCAR-5 ovarian): 6 µM
- GI50 (OVCAR-8 ovarian): 2.33 µM
- TGI (OVCAR-8 ovarian): 15.7 µM
- GI50 (PC-3 prostate): 1.42 µM
- TGI (PC-3 prostate): 4.72 µM
- GI50 (RPMI-8226 leukemia): 2.71 µM
- TGI (RPMI-8226 leukemia): > 100 µM
- GI50 (RXF 393 renal): 1.05 µM
- TGI (RXF 393 renal): 2.9 µM
- GI50 (SF-268 CNS): 1.64 µM
- TGI (SF-268 CNS): 10.2 µM
- GI50 (SF-295 CNS): 1.91 µM
- TGI (SF-295 CNS): 5.22 µM
- GI50 (SF-539 CNS): 0.767 µM
- TGI (SF-539 CNS): 2.09 µM
- GI50 (SK-MEL-2 melanoma): 10.4 µM
- TGI (SK-MEL-2 melanoma): 23 µM
- GI50 (SK-MEL-28 melanoma): 1.63 µM
- TGI (SK-MEL-28 melanoma): 4.05 µM
- GI50 (SK-MEL-5 melanoma): 1.99 µM
- TGI (SK-MEL-5 melanoma): 5.36 µM
- GI50 (SK-OV-3 ovarian): 5.1 µM
- TGI (SK-OV-3 ovarian): 17.5 µM
- GI50 (SN12C renal): 1.1 µM
- TGI (SN12C renal): 3.45 µM
- GI50 (SNB-19 CNS): 3.33 µM
- TGI (SNB-19 CNS): 14.2 µM
- GI50 (SNB-75 CNS): 1.61 µM
- TGI (SNB-75 CNS): 3.98 µM
- GI50 (SR leukemia): 1.04 µM
- TGI (SR leukemia): 18.4 µM
- GI50 (SW-620 colon): 0.441 µM
- TGI (SW-620 colon): 1.37 µM
- GI50 (T-47D breast): 1.46 µM
- TGI (T-47D breast): 3.26 µM
- GI50 (TK-10 renal): 3.79 µM
- TGI (TK-10 renal): 14.6 µM
- GI50 (U251 CNS): 3.37 µM
- TGI (U251 CNS): 14.9 µM
- GI50 (UACC-257 melanoma): 3.36 µM
- TGI (UACC-257 melanoma): 15.9 µM
- GI50 (UACC-62 melanoma): 2.86 µM
- TGI (UACC-62 melanoma): 12.7 µM
- GI50 (UO-31 renal): 31.3 µM
- TGI (UO-31 renal): > 100 µM
